Here are results for six compounds from ChEMBL document CHEMBL1157750, “Synthesis and evaluation of 17alpha-arylestradiols as ligands for estrogen receptor alpha and beta” (J Med Chem, 2010).

The test system of assay [1] is MCF7. Nature of the assay: Estrogenic activity in human MCF7 cells assessed as induction of cell proliferation at 0.001 to 1 nM after 6 days by fluorescence assay. Type of assay: functional, cell-based.
The subject of assay [2] is MCF7. Nature of the assay: Estrogenic activity in human MCF7 cells assessed as induction of cell proliferation at 100 nM after 6 days by fluorescence assay. Type of assay: functional, cell-based.
Assay [3] has as its target T1, Estrogen receptor beta (Homo sapiens, UniProt Q92731).
Description: Binding affinity to ERbeta by fluorescence polarization-based competitive binding assay
Assay [4] addresses T1, Estrogen receptor beta. The source holds these as a separate data set.
Description: Transactivation of human ERbeta expressed in HEK293 cells after 18 hrs by luciferase reporter gene assay
The species entered for assay [5] is Homo sapiens. Nature of the assay: Selectivity ratio of EC50 for human ERbeta to EC50 for human ERalpha.
The target of assay [6] is T2, Estrogen receptor (Homo sapiens, UniProt P03372).
T2 sequence (P03372 whole entry): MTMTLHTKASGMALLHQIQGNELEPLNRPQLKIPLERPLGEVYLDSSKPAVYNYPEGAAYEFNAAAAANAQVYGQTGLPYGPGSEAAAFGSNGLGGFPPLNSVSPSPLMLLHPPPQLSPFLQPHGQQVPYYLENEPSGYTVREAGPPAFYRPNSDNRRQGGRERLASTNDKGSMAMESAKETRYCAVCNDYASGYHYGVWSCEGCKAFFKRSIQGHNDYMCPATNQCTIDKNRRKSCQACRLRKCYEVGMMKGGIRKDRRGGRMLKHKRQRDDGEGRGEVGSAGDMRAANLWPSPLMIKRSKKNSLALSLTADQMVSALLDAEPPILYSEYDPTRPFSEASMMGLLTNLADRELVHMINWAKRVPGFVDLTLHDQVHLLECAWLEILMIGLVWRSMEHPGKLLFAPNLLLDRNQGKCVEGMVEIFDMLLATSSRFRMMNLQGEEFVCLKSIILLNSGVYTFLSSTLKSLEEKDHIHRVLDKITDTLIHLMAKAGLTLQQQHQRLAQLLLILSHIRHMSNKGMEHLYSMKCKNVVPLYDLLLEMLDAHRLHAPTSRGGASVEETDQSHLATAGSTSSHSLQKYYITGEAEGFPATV
Description: Binding affinity to ERalpha by fluorescence polarization-based competitive binding assay

The target of assay [7] is T2, Estrogen receptor. The source holds these as a separate data set.
Description: Transactivation of human ERalpha expressed in HEK293 cells after 18 hrs by luciferase reporter gene assay
Assay [8] relates to MCF7. In words: Estrogenic activity in human MCF7 cells assessed as induction of cell proliferation at 1 nM after 6 days by fluorescence assay. Type of assay: functional, cell-based.

Values joined by “and” are separate entries in the source; they are usually repeats but may differ in a detail not shown here. Equal entries are not always repeated. Active and inactive are the calls of the source. No cut-off for these calls is given here.

T1 sequence (Q92731 whole entry): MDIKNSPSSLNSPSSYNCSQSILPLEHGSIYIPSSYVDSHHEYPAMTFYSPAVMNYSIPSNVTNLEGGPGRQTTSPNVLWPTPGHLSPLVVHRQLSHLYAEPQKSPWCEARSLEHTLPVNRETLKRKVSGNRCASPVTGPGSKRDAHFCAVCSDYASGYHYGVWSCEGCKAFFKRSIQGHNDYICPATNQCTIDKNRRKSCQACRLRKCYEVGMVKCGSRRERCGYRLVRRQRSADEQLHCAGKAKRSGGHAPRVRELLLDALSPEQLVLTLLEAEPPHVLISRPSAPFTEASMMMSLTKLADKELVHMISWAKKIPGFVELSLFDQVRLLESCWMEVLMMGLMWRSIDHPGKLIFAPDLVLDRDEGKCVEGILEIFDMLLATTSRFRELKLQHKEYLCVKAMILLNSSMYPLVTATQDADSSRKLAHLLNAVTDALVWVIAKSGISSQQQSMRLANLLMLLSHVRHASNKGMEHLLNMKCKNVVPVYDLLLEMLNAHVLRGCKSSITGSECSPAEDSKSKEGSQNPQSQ

In the case of `C[C@]12CC[C@@H]3c4ccc(O)cc4CC[C@H]3[C@@H]1CC[C@@]2(O)c1ccc2c(c1)COC2`, the outcome in assay [1] and in assay [2] was Active.

Consider `Cc1ccc(S(=O)(=O)N2Cc3ccc([C@]4(O)CC[C@H]5[C@@H]6CCc7cc(O)ccc7[C@H]6CC[C@@]54C)cc3C2)cc1`, for which the outcome in assay [1] and in assay [2] was Active. In assay [3], this compound gave an IC50 of 500 nM. Further, the EC50 in assay [4] is 242 nM.

Take `CCOC(=O)C1(C(=O)OCC)Cc2ccc([C@]3(O)CC[C@H]4[C@@H]5CCc6cc(O)ccc6[C@H]5CC[C@@]43C)cc2C1`: the Ratio EC50 in assay [5] came out at 13. The result in assay [1] and in assay [2] was Active. The IC50 was 492 nM in assay [6] and 1080 nM in assay [3]. Also, the EC50 in assay [7] was 14.1 nM; in assay [4], 175 nM and 174 nM.

Turning to `CC(=O)C1(C(C)=O)Cc2ccc([C@]3(O)CC[C@H]4[C@@H]5CCc6cc(O)ccc6[C@H]5CC[C@@]43C)cc2C1`, the outcome in assay [8] and in assay [2] was Active. The results for the IC50 in assay [6] and in assay [3] were 243 nM and 254 nM, respectively. In addition, the EC50 in assay [7] was 336 nM; in assay [4], 221 nM.

Turning to `CCOC(=O)C1(C(C)=O)Cc2ccc([C@]3(O)CC[C@H]4[C@@H]5CCc6cc(O)ccc6[C@H]5CC[C@@]43C)cc2C1` (some centres not stated), the outcome in assay [1] and in assay [2] was Active. Further, the IC50 in assay [3] was 319 nM. Also, the EC50 in assay [4] is 34.6 nM.

Consider `CCOC(=O)C1(C#N)Cc2ccc([C@]3(O)CC[C@H]4[C@@H]5CCc6cc(O)ccc6[C@H]5CC[C@@]43C)cc2C1` (some centres not stated), for which the result in assay [1] and in assay [2] was Active. The compound further had an IC50 in assay [3] of 53.6 nM. Moreover, the EC50 in assay [4] is 22.7 nM.

Usually IC50 stands for the concentration needed to halve the response being measured. A high value points to lower potency. One may read the EC50 as the concentration giving half of the maximal effect.
